For the experiment, the target named is T1, Mismatch repair endonuclease PMS2 (UniProt P54278).
T1 sequence (P54278 whole entry): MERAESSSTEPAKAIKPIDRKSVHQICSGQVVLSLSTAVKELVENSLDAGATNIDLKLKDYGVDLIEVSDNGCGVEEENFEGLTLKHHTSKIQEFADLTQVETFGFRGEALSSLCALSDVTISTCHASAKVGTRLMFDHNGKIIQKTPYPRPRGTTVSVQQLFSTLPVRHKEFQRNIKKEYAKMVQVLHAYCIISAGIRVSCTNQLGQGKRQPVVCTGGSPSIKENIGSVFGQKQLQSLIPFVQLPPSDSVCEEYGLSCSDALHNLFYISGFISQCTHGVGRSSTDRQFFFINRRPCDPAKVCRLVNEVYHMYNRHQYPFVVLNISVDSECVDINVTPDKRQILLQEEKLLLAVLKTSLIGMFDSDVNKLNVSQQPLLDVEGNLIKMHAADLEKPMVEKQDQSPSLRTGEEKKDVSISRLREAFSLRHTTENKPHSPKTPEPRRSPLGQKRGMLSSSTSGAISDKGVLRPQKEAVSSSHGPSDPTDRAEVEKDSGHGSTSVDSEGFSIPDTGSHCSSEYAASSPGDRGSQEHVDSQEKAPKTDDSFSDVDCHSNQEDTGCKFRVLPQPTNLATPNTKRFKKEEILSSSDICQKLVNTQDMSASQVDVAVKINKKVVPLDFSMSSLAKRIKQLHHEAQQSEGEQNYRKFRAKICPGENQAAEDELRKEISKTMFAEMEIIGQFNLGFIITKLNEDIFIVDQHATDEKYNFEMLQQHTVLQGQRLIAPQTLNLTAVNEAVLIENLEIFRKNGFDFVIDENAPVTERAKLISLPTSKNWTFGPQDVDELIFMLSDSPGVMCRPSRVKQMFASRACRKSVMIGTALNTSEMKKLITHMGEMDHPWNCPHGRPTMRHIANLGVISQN
The experiment in a line: Fluorescence Polarization Assay for PMS2. Background: Fluorescence polarisation rises when a labelled molecule tumbles more slowly, as on binding a larger partner.

Each structure is given as a SMILES string. pIC50: −log10 of the molar value.

The compound `C=C(CN(C)C)C(=O)Nc1cccc2c1CN(C(=O)c1c(O)cc(O)c(C)c1OC)C2` [US20240425453, Example 36] had a pIC50 of less than 6.00.

Broadly, the pIC50 is −log10 of the IC50, conventionally taken in molar units.
